What was measured:
[1] = tested on: Chronic Constriction Injury (CCI) rats, thermal hyperalgesia; experiment: Test C: Neuropathic pain model (Chronic Constriction Injury), thermal hyperalgesia paw-withdrawal; format: in vivo; settings: Rattus norvegicus; for inhibition in vivo at 30 mg/kg/day / inhibition in vivo at 15 mg/kg/day: oral t.i.d., read-out: Test C (% Inh.): percent decrease in hyperalgesia at the MED; for minimal effective dose: po, 120 h, orally three times daily for 5 days, read-out: Test C MED (minimum effective dose)
Text: Test C: Neuropathic Pain Model (Chronic Constriction Injury):
(Mean of vehicle group−Mean of compound group)/(Mean of vehicle group)×100

[2] = target: T1, NMDA receptor glycine site (Rattus norvegicus, UniProt P35439); experiment: Test A: Inhibition of binding of [3H]-MDL105,519 to brain membranes; settings: [3H]MDL105,519 1.2 nM, brain membranes (rat and human membranes described; table does not say which)
T1 construct: brain membranes bearing the receptor; tissue Analytical Biological Services Inc; host or cells: rat brain membranes (cerebral cortex and hippocampus, male Sprague Dawley rats)
Text: Test A: Inhibition of Binding of [^3H]-MDL105,519:
Binding of compounds to the NMDA receptor glycine site may be assessed by measuring the ability of test compounds to inhibit the binding of tritiated MDL105,519 to brain membranes bearing the receptor.
Briefly, fresh brain tissue including cerebral cortex and hippocampus from male Sprague Dawley rats was homogenized in 0.32 M sucrose and centrifuged at low speed to separate cellular membranes from other cellular components. The membranes were then washed 3 times using deionized water, followed by treatment with 0.04% Triton X-100. Finally, membranes were washed six times in 50 mM Tris citrate buffer, pH 7.4, and frozen at −80° C. until use.
[^3H]MDL105,519 (72 Ci/mmol) was purchased from Amersham. Cold MDL105,519 was purchased from Sigma/RBI. […] On the day of the experiment, brain membranes were thawed at room temperature and suspended in 50 mM tris acetate buffer, pH 7.4 (“TAB”). Seventy-five micro grams per milliliter protein (by using the BioRad dye) were used for competition binding. The experiments were carried out using 96-well plates. […] Non specific binding was determined by using 100 μM of unlabeled MDL105,519. […] After incubation, unbound [^3H]MDL105,519 was removed by filtration onto GF/B Unifilter plates using a Packard harvester. Filters were washed four times with ice cold TAB (total of 1.2 mL buffer). The plates were dried overnight at room temperature and bound radioactivity was measured on a Packard TopCount after the addition of 45 μL per well of the MICROSCINT O.
Human brain membranes were obtained from Analytical Biological Services Inc., and assays were performed as described for rat membranes.
Data was analyzed using a Microsoft Excel spreadsheet and GraphPad Prizm software and potency of compounds is expressed as the Ki (nM).

[3] = tested on: formalin-induced nociceptive behaviors in rats; experiment: Test B: Formalin test (formalin-induced nociceptive behaviors, paw flinches); format: in vivo, rat; settings: dosed three hours prior to formalin; for Test B First phase Dose (% Inh.): % inhibition of nociceptive response: first phase (0-5 min); for Test B Second phase Dose (% Inh.): % inhibition of nociceptive response: second phase (20-35 min)
Method: In the test, two distinctive phases of formalin-induced behaviors are observed. A first phase response, caused by acute nociception to the noxious chemical (formalin) injected into the paw, occurs between zero and five minutes. […] After the quiescent period a second phase response, caused by sensitization of the central neurons in the dorsal horn, occurs after 15 minutes and lasts up to 60 minutes. Sensitization of the central neurons in the spine augments a noxious afferent input and causes a stronger pain barrage to be transmitted to the brain. Therefore, inhibition of the second phase response indicates a central mechanism of drug action.
The procedure for the formalin test is as follows: male rats are placed in a plexiglass chamber and observed for 30-45 min. to observe their baseline activity. Animals are either pretreated with vehicle or with different doses of a test compound. Animals are dosed with vehicle or test compound three hours prior to injection of 0.05 mL of sterile 1% formalin under the dorsal skin of a hind paw. The number of paw flinches (responses) during the first phase (0-5 min.) and the second phase (20-35 min.) are scored and recorded. Flinch response is compared with the mean score of a saline control group and calculated as percentage inhibition. […] First phase responses may be inhibited by compounds that act peripherally and by compounds that act centrally.
Student's t-test was used for statistical analysis to determine the significance of compound effects. Data are reported as a dose that yielded a % inhibition of a response.

Compound | inhibition in vivo at 30 mg/kg/day [1] [%] | minimal effective dose [1] [mg/kg/day] | Ki [2] [nM] | inhibition in vivo at 15 mg/kg/day [1] [%] | also measured
CS(=O)(=O)O.O=c1c2ccc(Cl)cc2[nH]c2c(O)nn(Cc3cnccn3)c(=O)c12 [Ex. 6, 7-Chloro-4-hydroxy-2-(pyrazin-2-ylmethyl)-1,2,5,10-tetrahydropyridazino[4,5-b]quinoline-1,10-dione methanesulfonate] | 64 | 30 | – | – | –
O=c1c2ccc(Cl)cc2[nH]c2c(O)nn(Cc3ncc[nH]3)c(=O)c12 [Ex. 15, 7-Chloro-4-hydroxy-2-(imidazol-2-ylmethyl)-1,2,5,10-tetrahydropyridazino[4,5-b]quinoline-1,10-dione] | – | – | 103 | – | –
O=c1c2ccc(Cl)cc2[nH]c2c(O)nn(Cc3cc4ccccc4o3)c(=O)c12 [Ex. 4, 7-Chloro-4-hydroxy-2-benzo[d]furan-2-ylmethyl-1,2,5,10-tetrahydropyridazino[4,5-b]quinoline-1,10-dione] | 44 | 30 | – | – | –
O=c1c2ccc(Cl)cc2[nH]c2c(O)nn(Cc3cc4ccccc4s3)c(=O)c12 [Ex. 13, 7-Chloro-4-hydroxy-2-(benzo[b]thien-2-ylmethyl)-1,2,5,10-tetrahydropyridazino[4,5-b]quinoline-1,10-dione] | – | 15 | – | 1 | –
O=c1c2ccc(Cl)cc2[nH]c2c(O)nn(Cc3ccco3)c(=O)c12 [Ex. 9, 7-Chloro-4hydroxy-2-(furan-2-ylmethyl)-1 2,5,10-tetrahydropyridazino[4,5-b]quinoline-1,10-dione] | – | 15 | 61 | 77 | Test B First phase Dose (% Inh.): % inhibition of nociceptive response ([3]; dose 200 (dose unit not given)): 200 (56%); Test B Second phase Dose (% Inh.): % inhibition of nociceptive response ([3]; dose 200 (dose unit not given)): 200 (46%); melting point: > 265 °C
O=c1c2ccc(Cl)cc2[nH]c2c(O)nn(Cc3ccsc3)c(=O)c12 [Ex. 12, 7-Chloro-4-hydroxy-2-(thien-3-ylmethyl)-1,2,5,10-tetrahydropyridazino[4,5-b]quinoline-1,10-dione] | – | 15 | – | 17 | –
O=c1c2ccc(Cl)cc2[nH]c2c(O)nn(Cc3ccnc4ccccc34)c(=O)c12 [Ex. 5, 7-Chloro-4-hydroxy-2-(quinolin-4-ylmethyl)-1,2,5,10-tetrahydropyridazino[4,5-b]quinoline-1,10-dione] | – | – | 371 | – | –
CS(=O)(=O)O.O=c1c2ccc(Cl)cc2[nH]c2c(O)nn(Cc3cccnc3)c(=O)c12 [Ex. 2, 7-Chloro-4-hydroxy-2-(3-pyridylmethyl)-1,2,5,10-tetrahydropyridazino[4,5-b]quinoline-1,10-dione Methanesulfonate] | 59 | 30 | – | – | Test B First phase Dose (% Inh.): % inhibition of nociceptive response ([3]; dose 200 (dose unit not given)): 200 (74%); Test B Second phase Dose (% Inh.): % inhibition of nociceptive response ([3]; dose 200 (dose unit not given)): 200 (71%)
O=c1c2ccc(Cl)cc2[nH]c2c(O)nn(Cc3cccs3)c(=O)c12 [Ex. 11, 7-Chloro-4-hydroxy-2-(thien-2-ylmethyl)-1,2,5,10-tetrahydropyridazino[4,5-b]quinoline-1,10dione] | – | 15 | – | -17 | –
CS(=O)(=O)O.O=c1c2ccc(Cl)cc2[nH]c2c(O)nn(Cc3ccncc3)c(=O)c12 [Ex. 1, 7-Chloro-4-hydroxy-2-(4-pyridylmethyl)-1,2,5,10-tetrahydropyridazino[4,5-b]quinoline-1,10-dione methanesulfonate] | 71 | 30 | – | – | Test B First phase Dose (% Inh.): % inhibition of nociceptive response ([3]; dose 70 (dose unit not given)): 70 (52%); Test B Second phase Dose (% Inh.): % inhibition of nociceptive response ([3]; dose 70 (dose unit not given)): 70 (57%)
O=c1c2ccc(Cl)cc2[nH]c2c(O)nn(Cc3ccncn3)c(=O)c12 | – | – | 513 | – | –

From patent US20030162783A1 (priority 1999, published 2003)
